Measured values: PubChem BioAssay (NCI)
“And” between values parts separate entries of the source, which are not always exact repeats. Identical values can stand only once.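 Method: 48-hour compound exposure of cells in 96-well plates, five concentrations, linear interpolation of endpoints. The concentration for 50% growth inhibition is given as GI50. The concentration for full growth arrest is given as TGI.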

Key:
Experiment in all cases: growth of human tumour cells (NCI), 48 h
[1] = test system: HS 578T breast
[2] = test system: SK-OV-3 ovarian
[3] = test system: SNB-19 CNS
[4] = test system: KM12 colon
[5] = test system: CCRF-CEM leukemia
[6] = test system: SN12C renal
[7] = test system: DU-145 prostate
[8] = test system: COLO 205 colon
[9] = test system: A549 NSCLC
[10] = test system: MCF7 breast

Compound | TGI [1] | TGI [2] | TGI [3] | TGI [4] | TGI [5] | TGI [6] | TGI [7] | TGI [8] | TGI [9] | TGI [10] | GI50 [1] | GI50 [2] | GI50 [3] | GI50 [4] | GI50 [5] | GI50 [6] [µM] | GI50 [7] | GI50 [8] | GI50 [9] [µM] | GI50 [10]
O=S(=O)(O)/C(=C\c1ccccc1)c1ccccc1 (tested in a mixture with another compound) | > 100 µM | > 100 µM | > 100 µM | > 100 µM | > 100 µM | > 100 µM | > 100 µM | > 100 µM | > 100 µM | > 100 µM | – | – | – | – | – | – | – | – | – | –
O=C(O)c1cscc1Cc1cccs1 | > 100 µM | > 100 µM | > 100 µM | > 100 µM | > 100 µM | > 100 µM | > 100 µM | > 100 µM | > 100 µM | > 100 µM | – | – | – | – | – | – | – | – | – | –
CC1SC(c2c(Cl)cccc2Cl)N(NC(=O)C(O)c2ccccc2)C1=O (stereo not given) | > 100 µM | > 100 µM | > 100 µM | > 100 µM | > 100 µM | > 100 µM | > 100 µM | > 100 µM | > 100 µM | > 100 µM | > 100 µM | > 100 µM | > 100 µM | 44.1 µM | 74.6 µM | > 100 | > 100 µM | > 100 µM | 94 | 74.2 µM
C(=C\c1nccc2c1[nH]c1ccccc12)/c1ccccc1 | 9.34 µM | 13.4 µM | 48.4 µM | 11.3 µM | 6.03 µM | 76.7 µM | 12.3 µM | 3.62 µM | > 100 µM | 23 µM | 2.35 µM | 2.97 µM | 4.4 µM | 2.15 µM | 2.1 µM | 3.83 | 3.5 µM | 1.56 µM | 4.09 | 2.15 µM
CCN(CC)CCOc1ccc2c(c1)C(=O)c1cc(OCCN(CC)CC)ccc1-2 | 38 µM | 60.2 µM | 61.7 µM | 24.9 µM | 21 µM | 45.1 µM | 81.5 µM | 9.38 µM | 32.9 µM | 14.8 µM | 13.7 µM | 16.4 µM | 26.3 µM | 5.36 µM | 4.81 µM | 12.6 | 14.8 µM | 2.56 µM | 6.4 | 3.44 µM
CC(O)C(O)C(O)C(/C=N\Nc1ccccc1)=N/Nc1ccccc1 (stereo not given) | 24.7 µM | 29.7 µM | 29.1 µM | 21.6 µM | 52.3 µM | 34.5 µM | 35.7 µM | 27.4 µM | 28.7 µM | 24.1 µM | – | – | – | – | – | – | – | – | – | –
CCc1c(O)c2c(c(O)c1C(C)=O)C(=O)c1c(cc(O)c(C(=O)O)c1C(=O)O)C2=O | > 100 µM | > 100 µM | > 100 µM | > 100 µM | > 100 µM | > 100 µM | > 100 µM | > 100 µM | > 100 µM | > 100 µM | – | – | – | – | – | – | – | – | – | –
COc1cc(C2=NN(c3ccc(S(N)(=O)=O)cc3)C(c3ccc(Cl)cc3)C2)cc(OC)c1OC (stereo not given) | > 100 µM | > 100 µM | > 100 µM | > 100 µM | > 100 µM | > 100 µM | > 100 µM | 12.2 µM | > 100 µM | > 100 µM | 3.58 µM | 6.91 µM | 5.48 µM | 4.79 µM | 4.81 µM | 6.67 | 9.78 µM | 3.52 µM | 4 | 3.36 µM
C#Cc1cccc(Oc2ccc(NC(=O)CCl)cc2)c1 | > 82.5 µM | > 82.5 µM | > 82.5 µM | > 82.5 µM | > 82.5 µM | > 82.5 µM | > 82.5 µM | 73.3 µM | > 82.5 µM | > 82.5 µM | > 82.5 µM | > 82.5 µM | > 82.5 µM | > 82.5 µM | 5.82 µM | > 82.5 | > 82.5 µM | 21.2 µM | > 82.5 | 64.4 µM
COc1cc(NCC2COc3c(ccc(OC)c3OC)C2=O)c([N+](=O)[O-])cc1OC (stereo not given) | > 100 µM | > 100 µM | > 100 µM | > 100 µM | > 100 µM | > 100 µM | > 100 µM | > 100 µM | > 100 µM | > 100 µM | – | – | – | – | – | – | – | – | – | –
Cc1cc(C)c2c(SCc3ccc(Cl)cc3Cl)nc(N)nc2n1 | > 100 µM | > 100 µM | > 100 µM | > 100 µM | > 100 µM | 60.7 µM | > 100 µM | > 100 µM | > 100 µM | > 100 µM | – | – | – | – | – | – | – | – | – | –
CCCCCCC#CC#Cc1cccc(=O)o1 | 6.49 µM | > 70 µM | 45.9 µM | 14.3 µM | > 19.8 µM | 2.97 µM | 8.26 µM | 20 µM | 30.7 µM | 22.3 µM | 1.99 µM | 23.8 µM | 25.6 µM | 3.83 µM | 0.265 µM | 1.31 | 3.31 µM | 9.5 µM | 9.24 | 2.22 µM
O=C(CNc1ncco1)Nc1ccc(S(=O)(=O)c2ccc(NC(=O)CNc3ncco3)cc2)cc1 | > 100 µM | 24.1 µM | 12.8 µM | 3.43 µM | 5.91 µM | 14.7 µM | 16.4 µM | 3.55 µM | 6.42 µM | 5.66 µM | 14.3 µM | 10.5 µM | 2.88 µM | 1.74 µM | 1.08 µM | 3.77 | 4.79 µM | 1.75 µM | 2.2 | 1.34 µM
NCCP(=O)(O)O | > 100 µM | > 100 µM | > 100 µM | > 100 µM | > 100 µM | > 100 µM | > 100 µM | > 100 µM | > 100 µM | > 100 µM | – | – | – | – | – | – | – | – | – | –
N#C/C(N)=C(\C#N)N=Cc1csc2ccccc12 | 58.9 µM | 46 µM | 71.9 µM | > 100 µM | > 100 µM | > 100 µM | > 100 µM | > 100 µM | > 100 µM | > 100 µM | 13.1 µM | 20.2 µM | 27.7 µM | > 100 µM | > 100 µM | 26.9 | 29.6 µM | 72.3 µM | 45.4 | 3.41 µM
COc1ccc(C(=O)COc2cccc(/C=C3\CSc4ccc(Cl)cc4C3=O)c2)cc1 | 31.7 µM | > 100 µM | 20.1 µM | 5.57 µM | 5.41 µM | 25.7 µM | 25.3 µM | 29 µM | > 100 µM | 11.3 µM | 3.55 µM | 25.9 µM | 6.99 µM | 2.28 µM | 1.82 µM | 8.16 | 12.7 µM | 14.1 µM | 64 | 1.5 µM
O=C1C(=O)c2ccccc2C(O)=C1CC=C(Cl)Cl | 194 µM and > 100 µM | 50.2 µM and 149 µM and > 100 µM | > 90.5 µM and 204 µM and > 100 µM | > 82.8 µM and 161 µM and > 100 µM | 52.1 µM and 162 µM and > 100 µM | > 86.9 µM and 137 µM and > 100 µM | 204 µM and > 100 µM | 28.8 µM and > 85.5 µM and > 100 µM | > 78.7 µM and 129 µM and > 100 µM | > 58.5 µM and 131 µM and > 100 µM | 14 µM and 13.3 µM | 15.1 µM and 16.1 µM | 7.46 µM and 9.74 µM | 11.7 µM and 5.17 µM | 1.57 µM and 4.69 µM | 5.92 | 12 µM and 10.9 µM | 11.4 µM and 11.2 µM | 5.63 | 5.15 µM and 4.73 µM
CC(=O)c1cc2c(c3ccsc13)-c1ccccc1CC2 | 44.6 µM | > 100 µM | > 100 µM | 54.9 µM | 62.1 µM | > 100 µM | > 100 µM | > 100 µM | > 100 µM | > 100 µM | 2.17 µM | > 100 µM | > 100 µM | 12.5 µM | 21.7 µM | 34.7 | 23.5 µM | 42 µM | 35.7 | 21 µM
O=C(NNS(=O)(=O)c1ccc(F)cc1)c1cccnc1Nc1ccc(Cl)cc1Cl | > 100 µM | > 100 µM | > 100 µM | 48.5 µM | > 100 µM | 31.7 µM | 55.4 µM | 50.8 µM | 41 µM | > 100 µM | 27.9 µM | 38.1 µM | 29.2 µM | 23 µM | 21.1 µM | 17.6 | 22.9 µM | 16.4 µM | 17.2 | 31.5 µM
O=C(O)c1cc(Cc2ccc(O)c(C(=O)O)c2)ccc1O (tested in a mixture with another compound) | 40.4 µM | 24.6 µM | 28.2 µM | 19.1 µM | > 100 µM | 20.6 µM | 27.8 µM | 3.41 µM | 28 µM | 12.5 µM | 3.78 µM | 11.4 µM | 12.8 µM | 4.39 µM | 2.25 µM | 6.84 | 12 µM | 1.57 µM | 9.82 | 2.53 µM
COC(=O)C1(C2CC/C(C)=C/CC/C(C)=C/CC[C@@]3(C)O[C@@H]3C2)CC1 (stereo not given in full) | > 100 µM | > 100 µM | > 100 µM | 43.5 µM | 65.3 µM | > 100 µM | > 100 µM | > 100 µM | > 80.3 µM | > 100 µM | > 91.2 µM | > 100 µM | > 100 µM | 18.9 µM | 25.7 µM | > 100 | 33.6 µM | > 56.5 µM | 29 | 51.1 µM
CC(=O)OC1CCC2(C)C(=CCC3C4CCC5(OC6CC(C)CN(C(C)=O)C6C5C)C(C)=C4C(=O)C32)C1 (stereo not given) | 31.4 µM | 66.8 µM | 32.7 µM | 37.6 µM | > 100 µM | 46.5 µM | > 100 µM | 32.4 µM | 47.7 µM | 26.4 µM | – | – | – | – | – | – | – | – | – | –
